Structures can show the parent of a compound that is named as a salt. Where two headings read alike, the source gives them in different places.
Assays:
[1] = target: Aurora A; set-up: method as in library vendor description; details: ref library vendor description; cited from earlier work
[2] = tested on: Toxoplasma gondii RH-2F tachyzoites; assay: microbe, parasite or virus in culture; details: 72 h
[3] = in vitro; details: human; for viability at 72 h: Host viability (%) mean
[4] = tested on: GFP-TgAtg8 tachyzoites; assay: Egress assay (A23187-induced); details: compound for 24 h, 3 μM A23187 for 5 min
[5] = tested on: T. gondii RH strain; assay: Murine model of acute toxoplasmosis: survival; assay type: in vivo, BALB/c mice; details: 50 mg/kg oral once daily for 5 days, RH tachyzoites ip, 20-day observation, n = 10; vehicle 11.9 ± 0.74 days
Protocol: To evaluate the ability of the two compounds to protect against acute T. gondii infection in vivo, we used a BALB/c murine model and challenged the mice with the RH-2F strain of T. gondii. Mice were divided into 4 groups consisting of 15 mice each and injected intraperitoneally with 10^3 RH strains per animal. Compounds were dissolved in DMSO and diluted in PBS prior to feeding to mice. After 4 h of infection, mice were treated for 5 consecutive days with daily oral administration of the specified compound at 50 mg/kg (once a day). Mice treated with pyrimethamine (50 mg/kg) were used as a positive control, and 1 ml PBS containing 11 μl of DMSO was used as a negative control. Within each group, 5 mice were euthanized at 7 dpi for comparison of parasite burden, and 10 mice were part of a 20-day survival experiment. Mice were monitored as described previously and scored twice per day for signs of toxoplasmosis, such as impaired mobility, difficulty in feeding, weight loss, self-mutilation and severe ascites. […] At the end of the experimental period, all remaining mice were euthanized.

[6] = tested on: Toxoplasma gondii RH-2F tachyzoites; assay: microbe, parasite or virus in culture; assay type: cell-based; details: 72 h, read-out: IC50 for parasite growth
[7] = tested on: human foreskin fibroblasts (HFFs); assay: In vitro drug efficacy: dose-response host cell viability by CCK8 (TD50); assay type: cell-based; details: uninfected HFFs, serial dilutions 0 to 100 μM, 72 h
Protocol: Each selected compound with an initial concentration of 100 μM in the culture medium was added to the first column of HFFs (~ 250 cells/well) in a 96-well half-area plate and then diluted serially across the plate by 2-fold dilutions, leaving the final column drug-free. […] Fifty tachyzoites were then added at a MOI of 1:5 to each well in six of the eight rows. After a 72 h incubation, CPRG was added, and the absorbance was measured at 570 nm. Meanwhile, to measure the effect of each compound on the viability of host cells, CCK8 reagent was added to the two rows of uninfected HFFs and absorbance at 450 nm was measured after 2 h. The assay was performed in triplicate and repeated three times.

[8] = cited from earlier work
[9] = tested on: RH GFP-TgAtg8 tachyzoites; assay: Intracellular proliferation assay; details: NVP-AEW541 […], GSK-J4 HCl 5 μM, 24 h after 2 h infection
[10] = tested on: NWT-21 fibrosarcoma; details: dose of 50 mg/kg; cited from earlier work
[11] = tested on: GFP-TgAtg8 tachyzoites; assay: Flow cytometric analysis of the parasite cell cycle (PI staining); assay type: cell-based, Toxoplasma gondii; details: 8 h with compound after PDTC synchronization
Protocol: Flow cytometric analyses were performed as described previously. Briefly, HFFs were infected with GFP-TgAtg8 tachyzoites at a MOI = 1. At 12 hpi, the cell cycle was synchronized by adding 80 μM pyrrolidine dithiocarbamate (PDTC, Sigma-Aldrich) and incubating at 37 °C and 5% CO2 for 8 h. After removing the PDTC, cells were incubated at 37 °C and 5% CO2 for 8 h in media containing the specified compound. The extracellular parasites were removed by washing with ice-cold PBS, and the intracellular tachyzoites were isolated by passage of host cells through a 27-gauge needle and purified with a 3 μm filter. The purified parasites were fixed with ice cold ethanol at − 20 °C for 24 h, and their DNA was stained by using propidium iodide (PI) solution (40 μg/ml PI, 360 μg/ml RNase A and 2% BSA in PBS) at 37 °C for 30 min in the dark. The stained parasites were filtered with a 5 μm pore filter and analysed on a FACSCanto™II flow cytometer (BD Biosciences, CA, USA). The results were analysed on an EPICS-XL flow cytometer (Beckman Coulter, CA, USA) by using SYSTEM II software (Beckman Coulter), and the percentages of the population in each phase of the cell cycle (G1, S, and G2 +M) were calculated. At least 10,000 events were collected per sample.

[12] = tested on: Toxoplasma gondii RH-2F tachyzoites; details: 5 μM compound, 72 h, RH-2F in HFFs; DMSO 0%, 10 μM pyrimethamine 100% inhibition
[13] = tested on: human foreskin fibroblasts (HFFs)
[14] = tested on: NWT-21 cells (NIH3T3 stably expressing the human IGF-IR); details: in vitro; read-out: IC50 against NWT-21 cells; cited from earlier work
[15] = tested on: IGF-1R; set-up: method as in library vendor description; details: ref library vendor description; cited from earlier work
[16] = tested on: EGFRL858R; set-up: method as in library vendor description; details: ref library vendor description; cited from earlier work
[17] = tested on: EGFRL858R/T790M; set-up: method as in library vendor description; details: ref library vendor description; cited from earlier work
[18] = tested on: OSA 8 cells; set-up: method as in library vendor description; details: HSP90 inhibitor; ref library vendor description; cited from earlier work
[19] = tested on: Kasumi-1 cells; set-up: dose or concentration left out as unconfirmed; details: cited from earlier work
[20] = tested on: Kasumi-1 cells; details: in vitro; read-out: IC50 against Kasumi-1 cells; cited from earlier work
[21] = tested on: RH GFP-TgAtg8 parasites; assay: Invasion assay; details: pre-treated 8 h, GSK-J4 HCl 5 μM, invasion for 1 h
[22] = tested on: CDK9; set-up: method as in library vendor description; details: ref library vendor description; cited from earlier work
[23] = tested on: NS3/4A protease of hepatitis C virus (HCV); set-up: method as in library vendor description; details: ref library vendor description; cited from earlier work
[24] = tested on: mTORC1; set-up: method as in library vendor description; details: ref library vendor description; cited from earlier work
[25] = tested on: mTORC2; set-up: method as in library vendor description; details: ref library vendor description; cited from earlier work
[26] = target: human 17,20-lyase; set-up: method as in library vendor description; details: ref library vendor description; cited from earlier work
[27] = target: rat 17,20-lyase; set-up: method as in library vendor description; details: ref library vendor description; cited from earlier work
[28] = tested on: A375 cells; set-up: method as in library vendor description; details: Hsp90 inhibitor; ref library vendor description; cited from earlier work
[29] = tested on: KDR; set-up: method as in library vendor description; details: ref library vendor description; cited from earlier work
[30] = tested on: CSF-1R; set-up: method as in library vendor description; details: ref library vendor description; cited from earlier work
[31] = tested on: Flt; set-up: method as in library vendor description; details: ref library vendor description; cited from earlier work
[32] = tested on: c-Raf; set-up: method as in library vendor description; details: ref library vendor description; cited from earlier work
[33] = tested on: Lck; set-up: method as in library vendor description; details: ref library vendor description; cited from earlier work
[34] = tested on: c-Kit; set-up: method as in library vendor description; details: ref library vendor description; cited from earlier work
[35] = set-up: method as in library vendor description; details: target not given; ref library vendor description; read-out: IC50 (DNA-damaging agent); cited from earlier work
[36] = tested on: c-Raf-1Y340D/Y341D; set-up: method as in library vendor description; details: ref library vendor description; cited from earlier work
[37] = tested on: EGFR(E746_A750); set-up: method as in library vendor description; details: ref library vendor description; cited from earlier work
[38] = tested on: MIAPaCa2 cells; set-up: method as in library vendor description; details: ref library vendor description; cited from earlier work
[39] = tested on: PANC1 cells; set-up: method as in library vendor description; details: ref library vendor description; cited from earlier work
[40] = tested on: Capan2 cells; set-up: method as in library vendor description; details: ref library vendor description; cited from earlier work
[41] = tested on: BxPC3 cells; set-up: method as in library vendor description; details: ref library vendor description; cited from earlier work
[42] = read-out: Parasite inhibition (%) mean, preliminary screen, mean
[43] = read-out: Parasite inhibition (%) mean

Cc1nc(N)sc1-c1ccnc(Nc2ccc(N3CCOCC3)cc2)n1 [CYC116]
Ki [1]: 0.008 µM
inhibition of growth at 5 µM [2, 42]: 71.7%
viability at 72 h [3]: 60.6%

NVP-AEW541
effect on Toxoplasma egress [4]: neither NVP-AEW541 nor GSK-J4 HCl inhibits Toxoplasma egress
survival time of infected mice [5]: 14.6 ± 1.84 days
IC50 ([6]; RH-2F-infected HFFs, serial dilutions 0 to 100 μM, β-Gal activity): 1.17 µM
TD50 against HFF (host cell) [7]: 7.3 µM
toxicity in experimental mice ([8]; 50 mg/kg of body weight for 1–2 weeks): no apparent toxicity
effect on Toxoplasma intracellular growth (tachyzoites per vacuole) [9]: not impaired
anti-tumour activity in mouse model [10]: had anti-NWT-21 fibrosarcoma activity
percentage of parasites in G1 phase [11]: 44.25%
percentage of parasites in G2 phase [11]: 8.30%
percentage of parasites in S phase [11]: 47.45%
Parasite inhibition (%) Mean ± SD [12]: 91.5 ± 2.5%
Host viability (%) mean [13]: 80.7%
Host viability (%) Mean ± SD ([13]; 5 µM): 80.7 ± 1.2%
IC50 [14]: 1.64 µM
IC50 [15]: 0.086 µM

C=CC(=O)Nc1cccc(Oc2nc(Nc3ccc(N4CCN(C)CC4)cc3OC)ncc2Cl)c1 [WZ4002]
inhibition of growth at 5 µM [2, 42]: -5.9%

CC(C)c1cc(-c2n[nH]c(=O)n2-c2ccc3c(ccn3C)c2)c(O)cc1O [Ganetespib (STA-9090)]
IC50 [18]: 0.004 µM
inhibition of growth at 5 µM [2, 42]: 5.1%

CCOC(=O)CCNc1cc(N2CCc3ccccc3CC2)nc(-c2ccccn2)n1 [GSK-J4 HCl]
effect on Toxoplasma egress [4]: neither NVP-AEW541 nor GSK-J4 HCl inhibits Toxoplasma egress
survival time of infected mice [5]: 15.2 ± 1.69 days
IC50 ([6]; Toxoplasma gondii): 2.37 µM
TD50 against HFF (host cell) [7]: 34.6 µM
leukemia infiltration in AML xenograft mouse model [19]: decreased leukemia infiltration
toxicity in experimental mice ([8]; 50 mg/kg of body weight for 4–6 weeks): no apparent toxicity
effect on Toxoplasma intracellular growth (tachyzoites per vacuole) [9]: significantly inhibited Toxoplasma intracellular growth
inhibition at 5 µM ([2]; read-out: Parasite inhibition (%) Mean ± SD): 90.4 ± 1.4%
percentage of parasites in G1 phase [11]: 70.88%
percentage of parasites in G2 phase [11]: 0.00%
percentage of parasites in S phase [11]: 29.12%
viability at 72 h, 5 µM ([3]; Host viability (%) Mean ± SD): 92.2 ± 3.8%
viability at 72 h [3]: 92.2%
IC50 [20]: 5.52 µM
effect on ability of parasites to invade host cells [21]: not affected

CC(C)(C)c1cnc(CSc2cnc(NC(=O)C3CCNCC3)s2)o1 [SNS-032 (BMS-387032)]
inhibition of growth at 5 µM [2, 42]: 9.9%

CC(C)(C)OC(=O)N[C@H]1CCCCC/C=C\[C@@H]2C[C@@]2(C(=O)NS(=O)(=O)C2CC2)NC(=O)[C@@H]2C[C@@H](OC(=O)N3Cc4cccc(F)c4C3)CN2C1=O [Danoprevir]
inhibition of growth at 5 µM [2, 42]: 0.9%
IC50 [23]: 0.0002 to 0.0035 µM

COc1ccc(-c2ccc3c(N4CCOCC4)nc(N4C[C@@H](C)O[C@@H](C)C4)nc3n2)cc1CO [Ku-0063794]
inhibition of growth at 5 µM [2, 42]: 31.4%

CNC(=O)c1ccc2cc(C3(O)CCn4cncc43)ccc2c1 (stereo not shown) [TAK-700 (Orteronel)]
inhibition of growth at 5 µM [2, 42]: 0.9%
IC50 [26]: 0.038 µM
IC50 [27]: 0.054 µM

CC(C)c1cc(C(=O)N2Cc3ccc(CN4CCN(C)CC4)cc3C2)c(O)cc1O [AT13387]
IC50 [28]: 0.018 µM
inhibition of growth at 5 µM [2, 42]: -1.7%

O=C(Nc1ccc(OC(F)(F)F)cc1)c1sccc1NCc1ccnc2ccccc12 [OSI-930]
IC50 [29]: 0.009 µM
IC50 [30]: 0.015 µM
IC50 [31]: 0.008 µM
inhibition of growth at 5 µM [2, 42]: 1%
IC50 [32]: 0.041 µM
IC50 [33]: 0.022 µM
IC50 [34]: 0.08 µM

Cn1c(CCCC(=O)O)nc2cc(N(CCCl)CCCl)ccc21 [Bendamustine HCL]
inhibition of growth at 5 µM [2, 43]: 0.4%
IC50 [35]: 50 µM

CCCS(=O)(=O)Nc1ccc(F)c(C(=O)c2c[nH]c3ncc(Cl)cc23)c1F [PLX-4720]
IC50 [36]: 0.0067 µM
inhibition of growth at 5 µM [2, 42]: 0.2%

C=CC(=O)Nc1cccc(Oc2nc(Nc3ccc(N4CCN(C)CC4)cc3)ncc2Cl)c1 [WZ3146]
IC50 [16]: 0.002 µM
inhibition of growth at 5 µM [2, 43]: -33.7%
IC50 [37]: 0.002 µM

Nc1ccn([C@@H]2O[C@@H](CO)[C@@H](O)C2(F)F)c(=O)n1 [Gemcitabine HCl (Gemzar)]
IC50 [38]: 0.04 µM
IC50 [39]: 0.05 µM
inhibition of growth at 5 µM [2, 42]: 75.4%
viability [3]: 16.8%
IC50 [40]: 0.012 µM
IC50 [41]: 0.018 µM

Source: PMC7216583 (Parasites & Vectors, 2020)
